Reference: article PMC6757289, “Design and Characterization of SGK3-PROTAC1, an Isoform Specific SGK3 Kinase PROTAC Degrader” (ACS Chemical Biology, 2019)

Legend:
[1] = tested on: phosphorylation of NDRG1 at Thr346; test: NDRG1 phosphorylation in HEK293 cells, immunoblot; type: cell-based; conditions: HEK293, 8 h, 0.3 μM SGK3-PROTAC1, 1 μM 14H, 1 μM 308-R
Experimental: Figure 3 Characterization of cellular activities of SGK3-PROTAC1 and cisSGK3-PROTAC1. (A) HEK293 cells were first treated for 8 h with 0.03–3 μM SGK3-PROTAC1 and cisSGK3-PROTAC1. One hour before lysis, cells were treated with 3 μM AZD5363. Lysates were subjected to immunoblot analysis with the indicated antibodies. […] Lysates were subjected to immunoblot analysis with the indicated antibodies. (C) HEK293 cells were treated for up to 48 h with SGK3-PROTAC1 (0.3 μM), and lysates were analyzed by immunoblot analysis using the indicated antibodies. (D) HEK293 cells were treated for 24 h with SGK3-PROTAC1. Cells were washed three times with DMEM to wash out the compound, and recovery of SGK3 expression protein was analyzed by immunoblot analysis. (E–G) As in A except that CAMA-1 (E), ZR-75-1 (F), and JIMT-1 (G) cells were employed rather than HEK293 cells.
To study the impact of SGK3-PROTAC1 on phosphorylation of a physiological substrate, we monitored phosphorylation of NDRG1 at Thr346.[37] This site is also phosphorylated by Akt; therefore we treated cells with increasing doses of SGK3-PROTAC1 and cisSGK3-PROTAC1 for 8 h, with the addition of an Akt inhibitor (3 μM AZD5363) 1 h before lysis, to remove the impact of Akt phosphorylation of NDRG1. […] Concentrations of cisSGK3-PROTAC1 of above 1 μM were required to lower NDRG1 phosphorylation. […] This is consistent with previous work in HEK293 cells showing that inhibition of both Akt and SGK3 is required to block NDRG1 phosphorylation.[8],[37]
All cell treatments were carried out as described in figure legends, to a final DMSO concentration of 0.1% (v/v). Lysates were quantified. Immunoblotting was performed using standard procedures, described in brief below. Lysate concentration was quantified by Bradford Assay, and 10 μg of lysate was loaded in the LDS sample buffer for SDS-PAGE electrophoresis on Novex 4–12% Bis–Tris gels. Proteins were electrophoretically transferred onto nitrocellulose membranes (Amersham Protran 0.45 μm NC; GE Healthcare) at 80 V for 80 min on ice in transfer buffer. Transferred membranes were blocked with 5% (w/v) nonfat dry milk dissolved in TBS-T [20 mM Tris/HCl, pH 7.5, 150 mM NaCl, and 0.1% (v/v) Tween 20] at RT for 30 min, before incubation with the primary antibody overnight at 4 °C. The signal was produced with near-infrared secondary antibodies and detected using a Licor Biosciences Odyssey System, and the signal was quantified in Image Studio Lite.

CAMA-1 cells = test: Cell growth (confluency, Incucyte S3); type: cell-based; conditions: CAMA-1; 1 μM GDC0941 or AZD5363; SGK3-PROTAC1/cisSGK3-PROTAC1 0.3 μM, 14H 3 μM
Experimental: (§1) Figure 6 SGK3-PROTAC1-mediated degradation of SGK3 further inhibiting the growth of cancer cell lines treated with PI3K-Akt pathway inhibitors. CAMA-1 (A, C) and ZR-75-1 (B, D) were treated with compounds as indicated either as monotherapy or in combination, and confluency was measured on the Incucyte S3 every 4 h for up to 4 weeks.
(§2) For growth assays, ZR-75-1 cells were seeded in 96-well plates at a density of 6000 cells/well and left to adhere overnight. Cells were then treated with compounds as described in the figure legends and imaged every 4 h on the Incucyte S3 (Essen Bioscience) for up to 4 weeks to give a measure of cell confluency. Media were refreshed every 4–5 days.
(§3) Supplementary Figure S3. SGK3-PROTAC compounds have no effect on cell growth. CAMA-1 and ZR-75-1
(§4) confluency was m easured every 4 h on Incucyte S3.
(§5) (1 picture or pasted object on this page, not shown here)

ZR-75-1 cells = test: Cell growth (confluency, Incucyte S3); type: cell-based; conditions: ZR-75-1; 1 μM GDC0941 or AZD5363; SGK3-PROTAC1/cisSGK3-PROTAC1 0.3 μM, 14H 3 μM
Experimental: as §1, §2, §3, §4, §5

SGK3 = biological target: T1, SGK3 (Homo sapiens, UniProt Q96BR1); set-up: method as in PMID 27481935; conditions: cited from earlier work
T1 sequence (Q96BR1 1-496): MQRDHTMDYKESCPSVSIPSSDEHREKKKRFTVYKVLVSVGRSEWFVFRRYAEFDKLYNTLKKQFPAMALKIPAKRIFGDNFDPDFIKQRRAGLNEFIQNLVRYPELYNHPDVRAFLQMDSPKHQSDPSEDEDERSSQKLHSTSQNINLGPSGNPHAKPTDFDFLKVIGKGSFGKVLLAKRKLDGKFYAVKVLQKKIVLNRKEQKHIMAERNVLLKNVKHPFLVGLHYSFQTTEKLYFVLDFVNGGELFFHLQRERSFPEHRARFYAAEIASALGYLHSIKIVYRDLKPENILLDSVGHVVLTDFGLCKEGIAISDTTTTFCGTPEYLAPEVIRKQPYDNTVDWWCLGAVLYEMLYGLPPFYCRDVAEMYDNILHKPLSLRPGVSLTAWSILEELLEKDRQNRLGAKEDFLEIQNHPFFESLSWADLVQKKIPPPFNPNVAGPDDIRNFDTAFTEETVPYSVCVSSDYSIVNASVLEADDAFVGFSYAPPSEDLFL

SGK1 = biological target: T2, SGK1 (Homo sapiens, UniProt O00141, S422D); set-up: method as in PMID 27481935; conditions: cited from earlier work
T2 sequence (O00141 60-431 S422D limits assumed): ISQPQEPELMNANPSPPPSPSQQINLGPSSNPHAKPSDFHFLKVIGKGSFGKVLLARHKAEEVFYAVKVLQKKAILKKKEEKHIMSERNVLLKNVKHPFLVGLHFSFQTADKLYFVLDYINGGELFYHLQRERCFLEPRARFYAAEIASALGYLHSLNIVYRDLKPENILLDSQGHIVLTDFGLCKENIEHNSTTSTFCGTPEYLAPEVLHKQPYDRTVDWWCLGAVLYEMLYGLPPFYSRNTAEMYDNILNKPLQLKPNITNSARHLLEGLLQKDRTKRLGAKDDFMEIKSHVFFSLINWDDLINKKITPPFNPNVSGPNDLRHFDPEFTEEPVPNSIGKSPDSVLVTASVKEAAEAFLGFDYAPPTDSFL

S6K1 = S6K1 (Homo sapiens, UniProt P23443, T412E); set-up: method as in PMID 27481935; conditions: cited from earlier work
S6K1, sequence (P23443 1-421 T412E limits assumed): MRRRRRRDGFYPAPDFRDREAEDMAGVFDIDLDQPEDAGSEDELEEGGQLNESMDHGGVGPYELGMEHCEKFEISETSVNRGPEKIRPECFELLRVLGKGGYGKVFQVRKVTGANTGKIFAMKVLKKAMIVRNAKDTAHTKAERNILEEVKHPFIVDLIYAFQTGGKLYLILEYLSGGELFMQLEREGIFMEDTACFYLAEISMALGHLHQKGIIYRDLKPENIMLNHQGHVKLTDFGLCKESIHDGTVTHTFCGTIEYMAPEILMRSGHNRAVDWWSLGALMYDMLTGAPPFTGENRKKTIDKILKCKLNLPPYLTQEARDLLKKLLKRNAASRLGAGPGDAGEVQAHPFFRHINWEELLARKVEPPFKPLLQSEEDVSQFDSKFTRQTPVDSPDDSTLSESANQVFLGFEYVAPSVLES

For `Nc1n[nH]c2nc(-c3ccc(NS(=O)(=O)c4cc(Cl)ccc4Cl)cc3)ncc12` [14H, reference compound], the pNDRG1 phosphorylation ([1]; basal, no inhibition of Akt) was “minimal effect”, the NDRG1 phosphorylation ([1]; in the presence of 3 μM AZD5363) was “markedly suppressed” and the “growth in combination with GDC0941 or AZD5363” value (CAMA-1 cells) was “further suppressed cell growth”. For the same compound, the “growth in combination with GDC0941 or AZD5363” value (ZR-75-1 cells) was “further suppressed cell growth”, the IC50 (SGK3) was 4 nM and the IC50 (SGK1) was 10 nM. For the same compound, the IC50 (S6K1) was 76 nM.
